These results are taken from US20120238623A1, “Inflammation and Autoimmune Disorder Treatment using RARa Selective Agonists” (priority 2011, published 2012).

The target of one test is T1, RARα (Homo sapiens, UniProt P10276).
T1 sequence (P10276 1-462): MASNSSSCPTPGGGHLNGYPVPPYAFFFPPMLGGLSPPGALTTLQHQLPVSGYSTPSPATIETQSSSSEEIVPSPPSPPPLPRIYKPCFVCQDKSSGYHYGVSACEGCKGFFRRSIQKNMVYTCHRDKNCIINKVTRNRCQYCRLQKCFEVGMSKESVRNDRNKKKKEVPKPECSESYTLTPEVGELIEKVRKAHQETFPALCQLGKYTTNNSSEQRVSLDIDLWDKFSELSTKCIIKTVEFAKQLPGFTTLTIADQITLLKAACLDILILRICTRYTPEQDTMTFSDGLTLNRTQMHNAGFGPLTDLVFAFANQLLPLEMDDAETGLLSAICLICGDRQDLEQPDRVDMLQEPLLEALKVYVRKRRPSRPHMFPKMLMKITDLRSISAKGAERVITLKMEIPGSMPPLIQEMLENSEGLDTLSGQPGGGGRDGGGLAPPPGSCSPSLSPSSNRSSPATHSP
Put plainly: displacement assay to measure agonist binding affinity. The note with it: read-out: Binding Affinities for RARα.

A further test has as its target T2, RARβ (Homo sapiens, UniProt P10826).
T2 sequence (P10826 1-455): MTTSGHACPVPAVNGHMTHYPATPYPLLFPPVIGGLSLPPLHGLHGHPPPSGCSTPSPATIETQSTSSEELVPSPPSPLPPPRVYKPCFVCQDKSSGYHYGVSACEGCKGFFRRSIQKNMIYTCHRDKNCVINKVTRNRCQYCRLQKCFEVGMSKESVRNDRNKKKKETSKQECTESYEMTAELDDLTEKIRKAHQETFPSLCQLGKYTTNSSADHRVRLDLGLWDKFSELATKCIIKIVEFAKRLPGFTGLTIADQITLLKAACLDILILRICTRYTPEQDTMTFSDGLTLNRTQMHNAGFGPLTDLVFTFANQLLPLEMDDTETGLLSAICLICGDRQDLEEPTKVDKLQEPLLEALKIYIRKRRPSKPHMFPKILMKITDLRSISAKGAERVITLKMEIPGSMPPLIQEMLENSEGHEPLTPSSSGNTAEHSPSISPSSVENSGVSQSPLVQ
The description is as above. The note with it: read-out: Binding Affinities for RARβ.

Another test addresses T3, RARγ (Homo sapiens, UniProt P13631).
T3 sequence (P13631 1-454): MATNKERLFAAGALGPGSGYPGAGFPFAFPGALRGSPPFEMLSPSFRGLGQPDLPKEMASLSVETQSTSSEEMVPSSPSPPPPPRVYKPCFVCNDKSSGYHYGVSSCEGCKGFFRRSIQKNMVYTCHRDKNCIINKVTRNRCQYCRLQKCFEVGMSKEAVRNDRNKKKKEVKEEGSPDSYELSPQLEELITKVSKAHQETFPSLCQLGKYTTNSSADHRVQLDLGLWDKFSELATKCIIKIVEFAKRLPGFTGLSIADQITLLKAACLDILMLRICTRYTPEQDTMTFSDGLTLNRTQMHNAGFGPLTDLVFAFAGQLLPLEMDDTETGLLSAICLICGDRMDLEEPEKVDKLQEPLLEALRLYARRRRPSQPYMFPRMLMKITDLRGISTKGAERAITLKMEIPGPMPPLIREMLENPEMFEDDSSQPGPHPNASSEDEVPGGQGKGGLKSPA
The test is described as above. The note with it: read-out: Binding Affinities for RARγ.

A further test deals with RARα, RARβ, and RARγ. Put plainly: transactivation assay to measure agonist activity. As to conditions: FIG. 2. It counts as cell-based. The source says:
Other RARα selective agonists useful as a compound disclosed herein are described in, e.g., Teng, et al., Aryl or Heteroaryl Amides of Tetrahydronaphthalene, Chroman, Thiochroman and 1,2,3,4-Tetrahydroquinoline Carboxylic Acids, Having an Electron Withdrawing Substituent in the Aromatic Or Heteroaromatic Moiety, Having Retinoid-Like Biological Activity, U.S. Pat. No. 5,856,490; Teng, et al., Methods of Treatment with Compounds Having RARα Receptor Specific or Selective Activity, U.S. Pat. No. 5,965,606; and Nehma, et al., Treatment of Tumors with RARα Selective Retinoid Compounds in Combination with Other Anti-Tumor Agents, U.S. Pat. No. 6,387,950; each of which is incorporated by reference in its entirety. […] Assays by which a compound can be tested and established whether or not it is an RARα selective agonist, are known in the art and are described in numerous prior art publications and patents.

Test [1] deals with Naive CD4+ CD25− FoxP3− cells. Put plainly: Treg cell differentiation (FoxP3-GFP expression by flow cytometry) in vitro. It counts as cell-based, mouse. The note with it: αCD3, IL-2 and TGF-β. The method, then:
Purified CD4+ CD25^− FoxP3^− cells were cultured in media with the specified concentration of each RAR agonist and analyzed by flow cytometry for FoxP3 (A), α4β7 (B), and CCR9 (C) expression in total CD4 T cells. FoxP3 results are representative of 3 independent experiments. CCR9 and α4β7 results are representative of multiple experiments.
It is important to determine which of the RAR (RARα, RARβ, RARγ) signaling pathways is important in the induction of Foxp3 expression. To determine this, naive CD4^+ CD25^− FoxP3^− cells were purified from a Foxp3-GFP mouse using flow cytometry by sorting and isolating based upon a GFP^− phenotype. These cells were activated polyclonally with αCD3 in vitro in the presence of IL-2 and TGF-β. To identify the RAR involved in RA-induced, the cultured cells were incubated with RAR selective agonists. The cultured cells were then score for the frequency of GFP+ (Foxp3+). With respect to the use of selective agonists, only the RARα agonist exerted significant impact on the expression of Foxp3 inducing nearly 100% Foxp3+ T cells, with enhancement on the expression of α4β7 and CCR9 (gut homing receptors) (FIG. 1). The RARγ and RARβ agonists were without effect.
(§1) To determine whether a RARα selective agonist could affect T cell differentiation, T cells were incubated with a RARα selective agonist to determine its effect on Foxp3 expression evaluated. Naive CD4^+ CD25^− FoxP3^− cells were purified from a Foxp3-GFP mouse using flow cytometry by sorting and isolating based upon a GFP^− phenotype. These cells were activated polyclonally with αCD3 in vitro in the presence of IL-2 and TGF-β. These cells were then cultured in media with various concentrations of compound 5183 (a RARα selective agonist) and the expression of FoxP3-GFP was analyzed by flow cytometry. The RARα selective agonist compound 5183 enhanced differentiation of immunosuppressive Treg cells and inhibited differentiation of inflammatory TH17 cells from Naïve T cells in vitro (Table 2).

In another test the test system is Naïve T cells. Kind of test: Th17 cell differentiation from Naïve T cells in vitro. It counts as cell-based, mouse. The method, then: as §1
The next test has as its system CD4+ T cells. Kind of test: in vivo FoxP3 expression in CD4+ T cells of blood and spleen. More on the design: species or system mouse. The note with it: mice, 100 μg every other day for 10 days. The method, then:
To expand on the finding above, the in vivo effects of a RARα selective agonist on T cell differentiation was evaluated in a mouse model. Mice were treated 100 μg of compound 5183 (a RARα agonist) or an equivalent volume of DMSO (vehicle control) every other day for 10 days. Lymphocytes from the blood and spleen were then isolated and FoxP3 expression in CD4^+ T cells was assessed.

The subject of test [2] is experimental autoimmune encephalomyelitis (EAE). Put plainly: experimental autoimmune encephalomyelitis (EAE) mouse model. It counts as in vivo, SJL mice. The method, then:
To determine if RARα selective agonists reduce symptoms associated with an autoimmune disorder, the effects of a RARα selective agonist was evaluated in an experimental autoimmune encephalomyelitis (EAE) mouse model. EAE is an inflammatory disease of the central nervous system widely used as a model of multiple sclerosis in which Th17 cells are the principle mediators of the symptoms observed. […] In one set of experiments, the effects of prophylactic dosing were assessed. Mice were administered 1 mg/kg of compound 5183 intraperitoneally every other day starting day 1 after EAE induction. In a second set of experiments, the effects of therapeutic dosing were assessed. Mice were administered 2 mg/kg of compound 5183 intraperitoneally every other day starting day 7 after EAE induction. Clinical parameters of disease (loss of bodyweight and paralysis/paresis) were monitored on a daily basis.

SMILES strings stand for the structures.

With `CC1(C)CCC(C)(C)c2c1cc(C(=O)Nc1cc(F)c(C(=O)O)c(F)c1)c(O)c2Cl` [Compound 5183], the Kd is 0.0047 µM on RARα, more than 10 µM at RARβ and more than 10 µM at RARγ. For the same compound, the “activation of transcription from RARα, RARβ, and RARγ” value in the test on RARα, RARβ, and RARγ is on record as “specifically activates RARα”. Further, the “Treg cell Percent Differentiation (%)” value in test [1] (0.1 nM) is on record as 26%; in test [1] (1 nM), 55%; in test [1] (10 nM) it was 90%. For the same compound, the “Th17 cell Percent Differentiation (%)” value was 32% in the test on Naïve T cells (0.1 nM), 21% in the test with Naïve T cells (1 nM), 11% with Naïve T cells (10 nM) and 5% in the test with Naïve T cells (100 nM). For the same compound, the “Foxp3+ Expression (%)” value was 4.3% in the test with CD4+ T cells (Blood) and 25% with CD4+ T cells (Spleen). The “symptoms associated with EAE (loss of bodyweight and paralysis/paresis)” value in test [2] (prophylactic dosing: 1 mg/kg intraperitoneally every other day starting day 1 after EAE induction) and in test [2] (therapeutic dosing: 2 mg/kg intraperitoneally every other day starting day 7 after EAE induction) was “reduced symptoms associated with EAE” throughout.
